From the NIST ThermoML archive (doi:10.1021/je049793l)
± gives the expanded uncertainty stated by the source.

Experiments:
[1] = 298.15 K; 101.3 kPa; Liquid
[2] = xn = mol fraction of the nth substance listed; settings: 298.15 K, 101.3 kPa, Liquid

Q: What does the source list for Cc1ccccc1C [1,2-dimethylbenzene]?
A: mass density [1]: 875.2 ± 1 kg/m3; speed of sound [1]: 1349 ± 3 m/s; viscosity [1]: 0.768 ± 0.013 mPa·s

Q: What does the source list for Cc1ccccc1C [1,2-dimethylbenzene] + CCC(C)=O?
A: mass density ([2]; x1 = 1): 875.2 ± 1 kg/m3; speed of sound ([2]; x1 = 1): 1349 ± 3 m/s; viscosity ([2]; x1 = 1): 0.768 ± 0.013 mPa·s

Q: For Cc1cccc(C)c1 [1,3-dimethylbenzene], which mass density [1] is on record?
A: 859.4 ± 1 kg/m3

Q: And the speed of sound [1]?
A: 1323 ± 4 m/s

Q: And the viscosity [1]?
A: 0.587 ± 0.011 mPa·s

Q: What does the source list for Cc1cccc(C)c1 [1,3-dimethylbenzene] + CCC(C)=O?
A: mass density ([2]; x1 = 0.0428): 803.5 ± 0.9 kg/m3; speed of sound ([2]; x1 = 0.0428): 1204 ± 4 m/s; viscosity ([2]; x1 = 0.0428): 0.384 ± 0.009 mPa·s; mass density ([2]; x1 = 0.1084): 809.2 ± 0.9 kg/m3; speed of sound ([2]; x1 = 0.1084): 1218 ± 4 m/s; viscosity ([2]; x1 = 0.1084): 0.398 ± 0.009 mPa·s; mass density ([2]; x1 = 0.2261): 818.3 ± 0.9 kg/m3; speed of sound ([2]; x1 = 0.2261): 1240 ± 4 m/s; viscosity ([2]; x1 = 0.2261): 0.422 ± 0.009 mPa·s; mass density ([2]; x1 = 0.3524): 827 ± 0.9 kg/m3; speed of sound ([2]; x1 = 0.3524): 1256 ± 4 m/s; viscosity ([2]; x1 = 0.3524): 0.448 ± 0.01 mPa·s; mass density ([2]; x1 = 0.4941): 835.7 ± 0.9 kg/m3; speed of sound ([2]; x1 = 0.4941): 1273 ± 4 m/s; viscosity ([2]; x1 = 0.4941): 0.478 ± 0.01 mPa·s; mass density ([2]; x1 = 0.646): 844.1 ± 0.9 kg/m3; speed of sound ([2]; x1 = 0.646): 1293 ± 4 m/s; viscosity ([2]; x1 = 0.646): 0.51 ± 0.01 mPa·s; mass density ([2]; x1 = 0.8137): 852 ± 1 kg/m3; speed of sound ([2]; x1 = 0.8137): 1312 ± 4 m/s; viscosity ([2]; x1 = 0.8137): 0.546 ± 0.011 mPa·s; mass density ([2]; x1 = 0.9235): 856.7 ± 1 kg/m3; speed of sound ([2]; x1 = 0.9235): 1320 ± 4 m/s; viscosity ([2]; x1 = 0.9235): 0.57 ± 0.011 mPa·s; mass density ([2]; x1 = 1): 859.4 ± 1 kg/m3; speed of sound ([2]; x1 = 1): 1323 ± 4 m/s; viscosity ([2]; x1 = 1): 0.587 ± 0.011 mPa·s

Q: What does the source list for Cc1ccc(C)cc1 [1,4-dimethylbenzene]?
A: mass density [1]: 856.1 ± 1 kg/m3; speed of sound [1]: 1316 ± 3 m/s; viscosity [1]: 0.609 ± 0.011 mPa·s

Q: What does the source list for Cc1ccc(C)cc1 [1,4-dimethylbenzene] + CCC(C)=O?
A: mass density ([2]; x1 = 1): 856.1 ± 1 kg/m3; speed of sound ([2]; x1 = 1): 1316 ± 3 m/s; viscosity ([2]; x1 = 1): 0.609 ± 0.011 mPa·s

Q: Which results are given for CCC(C)=O [butanone]?
A: mass density [1]: 799.6 ± 0.9 kg/m3; speed of sound [1]: 1195 ± 3 m/s; viscosity [1]: 0.376 ± 0.009 mPa·s

Q: Which results are given for CCC(C)=O [butanone] + CC(C)c1ccccc1?
A: mass density ([2]; x2 = 0): 799.6 ± 0.9 kg/m3; speed of sound ([2]; x2 = 0): 1195 ± 3 m/s; viscosity ([2]; x2 = 0): 0.376 ± 0.009 mPa·s

Q: Which mass density ([2]; x2 = 0) does the source give for CCC(C)=O [butanone] + Cc1ccc(C)cc1 here?
A: 799.6 ± 0.9 kg/m3

Q: And the speed of sound ([2]; x2 = 0)?
A: 1195 ± 3 m/s

Q: What about the viscosity ([2]; x2 = 0) of the same molecule?
A: 0.376 ± 0.009 mPa·s

Q: What about the mass density ([2]; x2 = 0.0429) of the same molecule?
A: 806 ± 0.9 kg/m3

Q: What about the speed of sound ([2]; x2 = 0.0429) of the same molecule?
A: 1218 ± 3 m/s

Q: What about the viscosity ([2]; x2 = 0.0429) of the same molecule?
A: 0.392 ± 0.009 mPa·s

Q: What about the mass density ([2]; x2 = 0.1074) of the same molecule?
A: 813.8 ± 0.9 kg/m3

Q: What about the speed of sound ([2]; x2 = 0.1074) of the same molecule?
A: 1237 ± 3 m/s

Q: What about the viscosity ([2]; x2 = 0.1074) of the same molecule?
A: 0.414 ± 0.009 mPa·s

Q: What about the mass density ([2]; x2 = 0.2235) of the same molecule?
A: 823.5 ± 0.9 kg/m3

Q: And the speed of sound ([2]; x2 = 0.2235)?
A: 1257 ± 3 m/s

Q: What about the viscosity ([2]; x2 = 0.2235) of the same molecule?
A: 0.444 ± 0.009 mPa·s

Q: What about the mass density ([2]; x2 = 0.3501) of the same molecule?
A: 830.4 ± 0.9 kg/m3

Q: And the speed of sound ([2]; x2 = 0.3501)?
A: 1272 ± 3 m/s

Q: And the viscosity ([2]; x2 = 0.3501)?
A: 0.471 ± 0.01 mPa·s

Q: What about the mass density ([2]; x2 = 0.4895) of the same molecule?
A: 836.6 ± 0.9 kg/m3

Q: And the speed of sound ([2]; x2 = 0.4895)?
A: 1289 ± 3 m/s

Q: What about the viscosity ([2]; x2 = 0.4895) of the same molecule?
A: 0.5 ± 0.01 mPa·s

Q: And the mass density ([2]; x2 = 0.6419)?
A: 842.9 ± 0.9 kg/m3

Q: What about the speed of sound ([2]; x2 = 0.6419) of the same molecule?
A: 1299 ± 3 m/s

Q: And the viscosity ([2]; x2 = 0.6419)?
A: 0.533 ± 0.01 mPa·s

Q: What about the mass density ([2]; x2 = 0.8117) of the same molecule?
A: 849.6 ± 1 kg/m3

Q: What about the speed of sound ([2]; x2 = 0.8117) of the same molecule?
A: 1308 ± 3 m/s

Q: What about the viscosity ([2]; x2 = 0.8117) of the same molecule?
A: 0.572 ± 0.011 mPa·s

Q: And the mass density ([2]; x2 = 0.9213)?
A: 853.2 ± 1 kg/m3

Q: And the speed of sound ([2]; x2 = 0.9213)?
A: 1313 ± 3 m/s

Q: What about the viscosity ([2]; x2 = 0.9213) of the same molecule?
A: 0.596 ± 0.011 mPa·s

Q: Which results are given for CCC(C)=O [butanone] + Cc1cccc(C)c1?
A: mass density ([2]; x2 = 0): 799.6 ± 0.9 kg/m3; speed of sound ([2]; x2 = 0): 1195 ± 4 m/s; viscosity ([2]; x2 = 0): 0.376 ± 0.009 mPa·s

Q: With CCC(C)=O [butanone] + Cc1ccccc1C as the molecule, how does the mass density ([2]; x2 = 0) read?
A: 799.6 ± 0.9 kg/m3

Q: And the speed of sound ([2]; x2 = 0)?
A: 1195 ± 3 m/s

Q: What about the viscosity ([2]; x2 = 0) of the same molecule?
A: 0.376 ± 0.009 mPa·s

Q: And the mass density ([2]; x2 = 0.0437)?
A: 805.6 ± 0.9 kg/m3

Q: And the speed of sound ([2]; x2 = 0.0437)?
A: 1208 ± 3 m/s

Q: And the viscosity ([2]; x2 = 0.0437)?
A: 0.39 ± 0.009 mPa·s

Q: What about the mass density ([2]; x2 = 0.1095) of the same molecule?
A: 813.7 ± 0.9 kg/m3

Q: What about the speed of sound ([2]; x2 = 0.1095) of the same molecule?
A: 1222 ± 3 m/s

Q: And the viscosity ([2]; x2 = 0.1095)?
A: 0.412 ± 0.009 mPa·s

Q: And the mass density ([2]; x2 = 0.2288)?
A: 825.7 ± 0.9 kg/m3

Q: What about the speed of sound ([2]; x2 = 0.2288) of the same molecule?
A: 1244 ± 3 m/s

Q: And the viscosity ([2]; x2 = 0.2288)?
A: 0.451 ± 0.01 mPa·s

Q: What about the mass density ([2]; x2 = 0.3564) of the same molecule?
A: 836.2 ± 0.9 kg/m3

Q: What about the speed of sound ([2]; x2 = 0.3564) of the same molecule?
A: 1266 ± 3 m/s

Q: What about the viscosity ([2]; x2 = 0.3564) of the same molecule?
A: 0.493 ± 0.01 mPa·s

Q: What about the mass density ([2]; x2 = 0.4969) of the same molecule?
A: 846.1 ± 0.9 kg/m3

Q: And the speed of sound ([2]; x2 = 0.4969)?
A: 1288 ± 3 m/s

Q: And the viscosity ([2]; x2 = 0.4969)?
A: 0.542 ± 0.011 mPa·s

Q: And the mass density ([2]; x2 = 0.65)?
A: 856 ± 1 kg/m3

Q: And the speed of sound ([2]; x2 = 0.65)?
A: 1310 ± 3 m/s

Q: And the viscosity ([2]; x2 = 0.65)?
A: 0.601 ± 0.011 mPa·s

Q: And the mass density ([2]; x2 = 0.8165)?
A: 865.9 ± 1 kg/m3

Q: What about the speed of sound ([2]; x2 = 0.8165) of the same molecule?
A: 1331 ± 3 m/s

Q: What about the viscosity ([2]; x2 = 0.8165) of the same molecule?
A: 0.673 ± 0.012 mPa·s

Q: What about the mass density ([2]; x2 = 0.9244) of the same molecule?
A: 871.7 ± 1 kg/m3

Q: And the speed of sound ([2]; x2 = 0.9244)?
A: 1339 ± 3 m/s

Q: What about the viscosity ([2]; x2 = 0.9244) of the same molecule?
A: 0.727 ± 0.013 mPa·s

Q: Which mass density [1] does the source give for CC(C)c1ccccc1 [isopropylbenzene] here?
A: 857.1 ± 1 kg/m3

Q: What about the speed of sound [1] of the same molecule?
A: 1338 ± 3 m/s

Q: And the viscosity [1]?
A: 0.739 ± 0.013 mPa·s

Q: With CC(C)c1ccccc1 [isopropylbenzene] + CCC(C)=O as the molecule, how does the mass density ([2]; x1 = 0.0377) read?
A: 805 ± 0.9 kg/m3

Q: And the speed of sound ([2]; x1 = 0.0377)?
A: 1204 ± 3 m/s

Q: And the viscosity ([2]; x1 = 0.0377)?
A: 0.388 ± 0.009 mPa·s

Q: And the mass density ([2]; x1 = 0.0964)?
A: 812.2 ± 0.9 kg/m3

Q: And the speed of sound ([2]; x1 = 0.0964)?
A: 1217 ± 3 m/s

Q: And the viscosity ([2]; x1 = 0.0964)?
A: 0.408 ± 0.009 mPa·s

Q: What about the mass density ([2]; x1 = 0.2025) of the same molecule?
A: 821.7 ± 0.9 kg/m3

Q: What about the speed of sound ([2]; x1 = 0.2025) of the same molecule?
A: 1240 ± 3 m/s

Q: What about the viscosity ([2]; x1 = 0.2025) of the same molecule?
A: 0.445 ± 0.009 mPa·s

Q: What about the mass density ([2]; x1 = 0.3251) of the same molecule?
A: 829.5 ± 0.9 kg/m3

Q: What about the speed of sound ([2]; x1 = 0.3251) of the same molecule?
A: 1262 ± 3 m/s

Q: What about the viscosity ([2]; x1 = 0.3251) of the same molecule?
A: 0.486 ± 0.01 mPa·s

Q: And the mass density ([2]; x1 = 0.4599)?
A: 835.4 ± 0.9 kg/m3

Q: And the speed of sound ([2]; x1 = 0.4599)?
A: 1279 ± 3 m/s

Q: What about the viscosity ([2]; x1 = 0.4599) of the same molecule?
A: 0.535 ± 0.01 mPa·s

Q: And the mass density ([2]; x1 = 0.615)?
A: 842 ± 0.9 kg/m3

Q: What about the speed of sound ([2]; x1 = 0.615) of the same molecule?
A: 1290 ± 3 m/s

Q: And the viscosity ([2]; x1 = 0.615)?
A: 0.592 ± 0.011 mPa·s

Q: What about the mass density ([2]; x1 = 0.7937) of the same molecule?
A: 849.2 ± 1 kg/m3

Q: And the speed of sound ([2]; x1 = 0.7937)?
A: 1298 ± 3 m/s

Q: And the viscosity ([2]; x1 = 0.7937)?
A: 0.66 ± 0.012 mPa·s

Q: And the mass density ([2]; x1 = 0.9123)?
A: 853.9 ± 1 kg/m3

Q: What about the speed of sound ([2]; x1 = 0.9123) of the same molecule?
A: 1308 ± 3 m/s

Q: And the viscosity ([2]; x1 = 0.9123)?
A: 0.705 ± 0.012 mPa·s

Q: And the mass density ([2]; x1 = 1)?
A: 857.1 ± 1 kg/m3

Q: What about the speed of sound ([2]; x1 = 1) of the same molecule?
A: 1338 ± 3 m/s

Q: What about the viscosity ([2]; x1 = 1) of the same molecule?
A: 0.739 ± 0.013 mPa·s
